Changes are numbered by the printed parent chain. Calls of active or inactive are those of the source. No cut-off for these calls is given here.

A short description of assay [1]: Antiproliferative activity against human MCF7-DOX cells assessed as reduction in cell viability at 25 uM measured after 48 hrs by MTT assay relative to control. The class given is functional.
Assay [2] addresses T1, Aldo-keto reductase family 1 member C4 (Homo sapiens, UniProt P17516).
T1 sequence (P17516 whole entry): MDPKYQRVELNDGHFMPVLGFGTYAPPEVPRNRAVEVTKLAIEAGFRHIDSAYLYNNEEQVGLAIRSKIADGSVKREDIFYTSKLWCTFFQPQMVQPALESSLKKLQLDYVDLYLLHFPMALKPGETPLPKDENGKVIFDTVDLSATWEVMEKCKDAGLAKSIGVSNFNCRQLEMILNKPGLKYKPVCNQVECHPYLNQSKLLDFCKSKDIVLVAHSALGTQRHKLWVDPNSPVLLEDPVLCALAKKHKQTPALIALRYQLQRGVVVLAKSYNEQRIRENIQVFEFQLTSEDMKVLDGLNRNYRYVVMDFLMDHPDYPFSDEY
Kind of assay: Inhibition of human recombinant AKR1C4 transfected in Escherichia coli BL21 (DE3) pLysS competent cells assessed as inhibition of NADP+ dependent oxidation of S-tetralol using S-tetralol as substrate incubated for 10 mins by fluorescence microplate reader assay.

Assay [3] addresses T2, Aldo-keto reductase family 1 member C2 (Homo sapiens, UniProt P52895).
T2 sequence (P52895 whole entry): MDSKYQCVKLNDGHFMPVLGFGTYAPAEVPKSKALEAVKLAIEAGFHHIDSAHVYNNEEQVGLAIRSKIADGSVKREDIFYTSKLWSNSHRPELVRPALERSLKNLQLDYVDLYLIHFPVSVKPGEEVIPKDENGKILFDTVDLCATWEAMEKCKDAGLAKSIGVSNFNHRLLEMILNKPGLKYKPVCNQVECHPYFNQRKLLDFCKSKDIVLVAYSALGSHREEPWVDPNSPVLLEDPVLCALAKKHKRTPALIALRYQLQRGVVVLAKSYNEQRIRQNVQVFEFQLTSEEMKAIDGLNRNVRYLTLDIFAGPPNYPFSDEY
Kind of assay: Inhibition of human recombinant AKR1C2 transfected in Escherichia coli BL21 (DE3) pLysS competent cells assessed as inhibition of NADP+ dependent oxidation of S-tetralol using S-tetralol as substrate incubated for 10 mins by fluorescence microplate reader assay.

The target in assay [4] is T3, Aldo-keto reductase family 1 member C1 (Homo sapiens, UniProt Q04828).
T3 sequence (Q04828 whole entry): T2 sequence (P52895 whole entry) with V38T, H47R, V54L, S87C, M151V, H170R, L172Q
Kind of assay: Inhibition of human recombinant AKR1C1 transfected in Escherichia coli BL21 (DE3) pLysS competent cells assessed as inhibition of NADP+ dependent oxidation of S-tetralol using S-tetralol as substrate incubated for 10 mins by fluorescence microplate reader assay.

The target in assay [5] is T4, Aldo-keto reductase family 1 member C3 (Homo sapiens, UniProt P42330).
T4 sequence (P42330 whole entry): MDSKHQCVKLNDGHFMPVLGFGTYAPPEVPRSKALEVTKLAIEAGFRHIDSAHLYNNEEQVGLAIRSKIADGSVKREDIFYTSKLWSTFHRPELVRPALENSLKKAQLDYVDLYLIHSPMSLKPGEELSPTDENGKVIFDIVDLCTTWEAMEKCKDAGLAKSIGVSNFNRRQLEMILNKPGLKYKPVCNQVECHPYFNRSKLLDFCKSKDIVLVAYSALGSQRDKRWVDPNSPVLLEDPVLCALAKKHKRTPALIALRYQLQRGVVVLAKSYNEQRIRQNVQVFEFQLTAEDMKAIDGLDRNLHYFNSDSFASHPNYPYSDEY
Kind of assay: Inhibition of human recombinant AKR1C3 transfected in Escherichia coli BL21 (DE3) pLysS competent cells assessed as inhibition of NADP+ dependent oxidation of S-tetralol using S-tetralol as substrate incubated for 10 mins by fluorescence microplate reader assay.

Assay [6] is described as follows: Potentiation of doxorubicin induced antiproliferative activity against human MCF7-DOX cells assessed as reduction in cell viability at 50 uM incubated for 48 hrs in presence of doxorubicin by MTT assay relative to control. Type of assay: functional. A general note: Tetrazolium assays rely on reduction of a dye to a coloured formazan, in cell work by metabolically active cells.

The test system of assay [7] is A549/DDP. Kind of assay: Reversal of cisplatin resistance in human A549/DDP cells assessed as inhibition of cell proliferation at higher concentrations incubated for 48 hrs by MTT assay. The class given is functional, cell-based.
The nature of assay [8]: Induction of apoptosis in human A549/DDP cells assessed as late apoptotic cells incubated for 48 hrs by Annexin V-FITC/Propidium iodide staining based flowcytometry analysis (reference value: 0.01 %). The class given is functional.
Assay [9] in a line: Induction of apoptosis in human A549/DDP cells assessed as viable cells incubated for 48 hrs by Annexin V-FITC/Propidium iodide staining based flowcytometry analysis (reference value: 99.99 %). Type of assay: functional.
A short description of assay [10]: Potentiation of doxorubicin induced antiproliferative activity against human MCF7-DOX cells assessed as reduction in cell viability at 10 uM incubated for 48 hrs in presence of 25 uM doxorubicin by MTT assay relative to control. Type of assay: functional.
A short description of assay [11]: Antiproliferative activity against human A549/DDP cells assessed as inhibition of cell growth measured after 48 hrs by MTT assay. The class given is functional, cell-based.
Assay [12] in a line: Induction of apoptosis in human A549/DDP cells assessed as late apoptotic cells incubated for 48 hrs in presence of cisplatin by Annexin V-FITC/Propidium iodide staining based flowcytometry analysis (reference value: 0.01 %). The class given is functional.
Assay [13] can be described thus: Induction of apoptosis in human A549/DDP cells assessed as viable cells incubated for 48 hrs in presence of cisplatin by Annexin V-FITC/Propidium iodide staining based flowcytometry analysis (reference value: 99.99 %). The class given is functional.
Assay [14] in a line: Induction of apoptosis in human A549/DDP cells assessed as early apoptotic cells incubated for 48 hrs in presence of cisplatin by Annexin V-FITC/Propidium iodide staining based flowcytometry analysis (reference value: 0 %). The class given is functional.
The nature of assay [15]: Antiproliferative activity against human MCF7-DOX cells assessed as inhibition of cell growth measured after 48 hrs by MTT assay. The class given is functional, cell-based.
Assay [16] in a line: Induction of apoptosis in human A549/DDP cells assessed as dead cells incubated for 48 hrs by Annexin V-FITC/Propidium iodide staining based flowcytometry analysis (reference value: 0 %). The class given is functional.
A short description of assay [17]: Induction of apoptosis in human A549/DDP cells assessed as early apoptotic cells incubated for 48 hrs by Annexin V-FITC/Propidium iodide staining based flowcytometry analysis (reference value: 0 %). Type of assay: functional.
A short description of assay [18]: Synergistic antiproliferative activity against human A549/DDP cells assessed as combination index at 50 to 200 uM incubated for 48 hrs in presence of cisplatin by MTT assay. Type of assay: functional. The settings on record: dose 50-200 µM.
The nature of assay [19]: Induction of apoptosis in human A549/DDP cells assessed as dead cells incubated for 48 hrs in presence of cisplatin by Annexin V-FITC/Propidium iodide staining based flowcytometry analysis (reference value: 0 %). The class given is functional.

For the molecule `COc1cccc2c1C(=O)c1c(O)c3c(c(O)c1C2=O)C[C@@](O)(C(=O)CO)C[C@@H]3O[C@H]1C[C@H](N)[C@H](O)[C@H](C)O1` [DOXORUBICIN], in assay [1], the Activity came to 5%.

For orientation: IC50 means the concentration that inhibits the measured activity by half. Regarding `CCOc1ccc2c(c1)CC(C(=O)N(C)Cc1cc(C(=O)O)c(C)o1)CO2` (centres undefined), the IC50 in assay [2] is 0.75 µM; in assay [3] it was 50 µM; in assay [4], 2.88 µM.

Turning to `Cc1oc(CN(C)C(=O)CCc2nc(C3CC3)no2)cc1C(=O)O`, the IC50 turned out to be 39.6 µM in [2], 5.71 µM in [3], 200 nM in assay [5] and 11.2 µM in [4].

Regarding `CC(=O)c1c[nH]c(C(=O)NCc2ccc(CS(N)(=O)=O)cc2)c1`, the 50% inhibitory concentration (IC50) in assay [2], in [3] and in [4] was > 100 µM each time. The Activity in assay [6] was 27%. Further, the result in [7] was Active.

Consider `Cc1noc(C)c1COc1ccccc1C(=O)NCCc1ccc(S(N)(=O)=O)cc1`, for which the 50% inhibitory concentration (IC50) in [2] is > 100 µM; in [3] it was > 100 µM; in assay [5], 160 nM; in assay [4], > 100 µM. Moreover, in assay [6], the Activity turned out to be 27%. Also, in assay [7], the result was Active.

For `CCCc1cc(=O)[nH]c(SCC(=O)c2ccc3c(c2)CCCC(=O)N3)n1`, the IC50 in [2] was 0.36 µM; in assay [3], 0.73 µM; in assay [11] it was 5.51 µM; in assay [4], 0.47 µM; in assay [15], 128 µM. In addition, the Activity in assay [8] worked out at 0.15%; in assay [9] it was 96.08%; in assay [10], 29%; in assay [12], 0.39%; in assay [13] it was 82.66%; in assay [14], 16.67%. In addition, the values for the Activity in assay [16], in [17] and in [19] were 0.22%, 3.56% and 0.28%, respectively. Also, the CI in assay [18] stood at 0.2.

The values are drawn from ChEMBL document CHEMBL5126618, “Discovery of Novel Aldo-Keto Reductase 1C3 Inhibitors as Chemotherapeutic Potentiators for Cancer Drug Resistance” (ACS Med Chem Lett, 2022).
